In US12606561B2, “Substituted pyrazolo[1,5-a][1,3,5]triazines as CDK inhibitors” (QURIENT CO., LTD., priority 2018, dated 2026):

Legend:
[1] = biological target: T1, CDK5/p25 (Homo sapiens, UniProt Q00535); experiment: Enzymatic assay for CDK5 (LANCE Ultra kinase assay, FRET based); assay type: biochemical; settings: ATP at Km
T1 construct: purchased Invitrogen PR8543B
Summary of the method: (§1)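 Compounds tested as 8 doses in 4-fold steps against CDK2/Cyclin A ([…]) or CDK5/p25 ([…]), with ATP at its Km and 68 nM ULight-MBP substrate. After 60 min at 23° C., EDTA plus Eu-labelled anti-phospho-MBP added; TR-FRET (615/665 nm) read after another 60 min.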

[2] = tested on: OVCAR-3; experiment: OVCAR-3 viability assay (CellTiter-Glo, 72 hours); assay type: cell-based; settings: Homo sapiens; OVCAR-3 cells
Summary of the method: (§2)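 CellTiter-Glo luminescence read-out after 72 h compound exposure at 37° C, 5% CO2, duplicates. Seeding densities: MV4-11 1×10^4 cells/well, OVCAR-3 5×10^3, A2780 1×10^3. Dose range 0.0015 uM to 10 uM, added 24 h post-plating; DMSO control, final <0.1%.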

[3] = biological target: T2, CDK7/Cyclin H/MNAT1 (Homo sapiens, UniProt P50613); experiment: Enzymatic assay for CDK7 (LANCE Ultra kinase assay, FRET based); assay type: biochemical; settings: for IC50: ATP at Km
T2 construct: purchased Invitrogen PR6749B
Summary of the method: (§3)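 FRET read-out: Eu-labeled anti-phospho-antibody binding a phosphorylated ULight peptide. Purified CDK–cyclin complex, ATP at Km.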

[4] = biological target: T3, CDK2/Cyclin A (Homo sapiens, UniProt P24941); experiment: Enzymatic assay for CDK2 (LANCE Ultra kinase assay, FRET based); assay type: biochemical; settings: ATP at Km
T3 construct: purchased Invitrogen PV6290
Summary of the method: as §1

[5] = biological target: T4, CDK1/Cyclin B (Homo sapiens, UniProt P06493); experiment: Enzymatic assay for CDK1 (LANCE Ultra kinase assay, FRET based); assay type: biochemical; settings: ATP at Km; read-out: CDK1 enzymatic activity IC50
T4 construct: purchased Invitrogen PR4768C
Summary of the method: as §3

[6] = tested on: A2780; experiment: A2780 viability assay (CellTiter-Glo, 72 hours); assay type: cell-based; settings: Homo sapiens; A2780 cells
Summary of the method: as §2

T4 sequence (P06493 whole entry): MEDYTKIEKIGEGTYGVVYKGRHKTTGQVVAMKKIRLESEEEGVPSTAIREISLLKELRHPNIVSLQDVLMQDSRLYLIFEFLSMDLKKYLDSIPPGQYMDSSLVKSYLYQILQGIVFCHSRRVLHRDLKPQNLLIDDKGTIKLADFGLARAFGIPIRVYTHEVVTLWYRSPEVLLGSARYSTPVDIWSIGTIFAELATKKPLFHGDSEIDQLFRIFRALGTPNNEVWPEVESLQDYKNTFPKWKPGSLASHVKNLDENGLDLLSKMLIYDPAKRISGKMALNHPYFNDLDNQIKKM
T4 sequence (P14635 whole entry partner): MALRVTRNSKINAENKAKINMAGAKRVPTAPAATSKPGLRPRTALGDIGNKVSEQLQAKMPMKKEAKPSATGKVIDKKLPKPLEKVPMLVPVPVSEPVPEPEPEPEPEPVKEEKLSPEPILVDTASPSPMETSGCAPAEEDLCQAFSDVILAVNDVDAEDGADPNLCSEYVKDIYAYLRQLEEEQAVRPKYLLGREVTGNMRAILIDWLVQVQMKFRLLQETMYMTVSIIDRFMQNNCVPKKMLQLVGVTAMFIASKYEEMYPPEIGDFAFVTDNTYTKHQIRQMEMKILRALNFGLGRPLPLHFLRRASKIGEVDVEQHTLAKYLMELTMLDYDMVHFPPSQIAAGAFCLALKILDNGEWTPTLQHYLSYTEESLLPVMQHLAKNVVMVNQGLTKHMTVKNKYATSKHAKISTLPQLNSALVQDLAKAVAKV
T1 sequence (Q00535 whole entry): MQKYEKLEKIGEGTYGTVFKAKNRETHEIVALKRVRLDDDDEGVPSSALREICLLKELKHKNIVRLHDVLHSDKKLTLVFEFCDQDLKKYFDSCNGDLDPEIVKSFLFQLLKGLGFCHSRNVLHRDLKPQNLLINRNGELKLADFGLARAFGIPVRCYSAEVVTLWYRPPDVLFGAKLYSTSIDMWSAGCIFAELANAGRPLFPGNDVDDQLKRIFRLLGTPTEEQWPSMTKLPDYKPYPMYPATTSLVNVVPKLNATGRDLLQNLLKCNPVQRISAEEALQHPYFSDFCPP
T1 sequence (Q15078 99-307 partner limits assumed): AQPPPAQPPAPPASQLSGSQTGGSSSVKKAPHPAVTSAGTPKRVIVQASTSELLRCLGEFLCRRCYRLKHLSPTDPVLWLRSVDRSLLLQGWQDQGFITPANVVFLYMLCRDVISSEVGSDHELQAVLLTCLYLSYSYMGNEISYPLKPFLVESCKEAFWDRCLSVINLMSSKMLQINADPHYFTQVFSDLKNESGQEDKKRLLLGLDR
T2 sequence (P50613 whole entry): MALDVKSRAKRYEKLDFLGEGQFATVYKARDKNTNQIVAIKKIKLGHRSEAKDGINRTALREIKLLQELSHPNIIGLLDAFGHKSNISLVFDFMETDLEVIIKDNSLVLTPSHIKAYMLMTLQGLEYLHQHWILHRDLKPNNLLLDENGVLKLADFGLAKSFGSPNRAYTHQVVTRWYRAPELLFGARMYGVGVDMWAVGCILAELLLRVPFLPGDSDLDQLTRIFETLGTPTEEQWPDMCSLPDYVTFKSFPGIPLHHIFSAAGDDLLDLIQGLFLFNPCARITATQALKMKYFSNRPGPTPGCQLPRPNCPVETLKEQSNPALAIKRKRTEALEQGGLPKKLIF
T2 sequence (P51946 whole entry partner): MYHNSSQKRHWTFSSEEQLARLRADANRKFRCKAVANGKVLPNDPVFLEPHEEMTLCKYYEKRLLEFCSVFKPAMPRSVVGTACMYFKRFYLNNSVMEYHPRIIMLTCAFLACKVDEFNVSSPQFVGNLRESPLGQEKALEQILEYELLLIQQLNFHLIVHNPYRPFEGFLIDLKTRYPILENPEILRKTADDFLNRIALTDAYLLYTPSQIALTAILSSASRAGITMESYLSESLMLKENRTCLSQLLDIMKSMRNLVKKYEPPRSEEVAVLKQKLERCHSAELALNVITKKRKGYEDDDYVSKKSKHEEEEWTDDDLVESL
T2 sequence (P51948 whole entry partner): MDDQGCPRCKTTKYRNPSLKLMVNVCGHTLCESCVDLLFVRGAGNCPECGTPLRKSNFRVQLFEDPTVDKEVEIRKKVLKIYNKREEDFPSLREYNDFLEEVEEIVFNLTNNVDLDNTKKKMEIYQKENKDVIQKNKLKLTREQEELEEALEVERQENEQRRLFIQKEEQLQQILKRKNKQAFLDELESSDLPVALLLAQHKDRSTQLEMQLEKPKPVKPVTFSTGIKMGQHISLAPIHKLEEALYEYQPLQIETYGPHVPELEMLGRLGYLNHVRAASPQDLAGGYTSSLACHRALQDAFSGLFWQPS

SMILES: CC(C)c1cnn2c(NCc3ccccc3-c3nccc4cc(NC(=O)/C=C/CN(C)C)ccc34)nc(N3CCC4(CCN(C)C4)CC3)nc12 [Compound 121]
- IC50 [1]: > 1000 nM
- IC50 [2]: < 1000 nM
- IC50 [3]: < 100 nM
- CDK1/CDK7: Selectivity of CDK7 inhibition over CDK1 inhibition [3]: B (B indicates 50 < [fold] ≤ 500)
- CDK2/CDK7: Selectivity of CDK7 inhibition over CDK2 inhibition [3]: B (B indicates 50 < [fold] ≤ 500)
- CDK5/CDK7: Selectivity of CDK7 inhibition over CDK5 inhibition [3]: B (B indicates 50 < [fold] ≤ 500)
- IC50 [4]: > 1000 nM
- IC50 [5]: > 1000 nM
- IC50 [6]: < 1000 nM

SMILES: C=C(F)C(=O)Nc1ccc2c(-c3ccccc3CNc3nc(NC4CCC(OC)CC4)nc4c(C(C)C)cnn34)nccc2c1 (stereo not drawn) [Compound 84]
- IC50 [1]: > 1000 nM
- IC50 [2]: < 1000 nM
- IC50 [3]: 100 to 1000 nM
- CDK1/CDK7: Selectivity of CDK7 inhibition over CDK1 inhibition [3]: B (B indicates 50 < [fold] ≤ 500)
- CDK2/CDK7: Selectivity of CDK7 inhibition over CDK2 inhibition [3]: B (B indicates 50 < [fold] ≤ 500)
- CDK5/CDK7: Selectivity of CDK7 inhibition over CDK5 inhibition [3]: B (B indicates 50 < [fold] ≤ 500)
- IC50 [4]: > 1000 nM
- IC50 [5]: > 1000 nM
- IC50 [6]: < 1000 nM

SMILES: C=CC(=O)Nc1ccc2c(-c3ccccc3CNc3nc(N4CCS(=O)(=O)CC4)nc4c(C(C)C)cnn34)nccc2c1 [Compound 113]
- IC50 [1]: > 1000 nM
- IC50 [2]: < 1000 nM
- IC50 [3]: < 100 nM
- CDK1/CDK7: Selectivity of CDK7 inhibition over CDK1 inhibition [3]: B (B indicates 50 < [fold] ≤ 500)
- CDK2/CDK7: Selectivity of CDK7 inhibition over CDK2 inhibition [3]: B (B indicates 50 < [fold] ≤ 500)
- CDK5/CDK7: Selectivity of CDK7 inhibition over CDK5 inhibition [3]: B (B indicates 50 < [fold] ≤ 500)
- IC50 [4]: > 1000 nM
- IC50 [5]: > 1000 nM
- IC50 [6]: < 1000 nM

SMILES: C=C(F)C(=O)Nc1ccc2c(-c3ccccc3CNc3cc(C)nc4c(C(C)C)cnn34)nccc2c1 [Compound 156]
- IC50 [1]: > 1000 nM
- IC50 [2]: 1000 to 10000 nM
- IC50 [3]: 100 to 1000 nM
- CDK1/CDK7: Selectivity of CDK7 inhibition over CDK1 inhibition [3]: B (B indicates 50 < [fold] ≤ 500)
- CDK2/CDK7: Selectivity of CDK7 inhibition over CDK2 inhibition [3]: B (B indicates 50 < [fold] ≤ 500)
- CDK5/CDK7: Selectivity of CDK7 inhibition over CDK5 inhibition [3]: B (B indicates 50 < [fold] ≤ 500)
- IC50 [4]: > 1000 nM
- IC50 [5]: > 1000 nM
- IC50 [6]: < 1000 nM

SMILES: C=C(F)C(=O)Nc1ccc2c(-c3ccccc3CNc3nc(NC4CC(OC)C4)nc4c(C(C)C)cnn34)nccc2c1 (stereo not drawn) [Compound 99]
- IC50 [1]: > 1000 nM
- IC50 [2]: < 1000 nM
- IC50 [3]: 100 to 1000 nM
- CDK1/CDK7: Selectivity of CDK7 inhibition over CDK1 inhibition [3]: B (B indicates 50 < [fold] ≤ 500)
- CDK2/CDK7: Selectivity of CDK7 inhibition over CDK2 inhibition [3]: B (B indicates 50 < [fold] ≤ 500)
- CDK5/CDK7: Selectivity of CDK7 inhibition over CDK5 inhibition [3]: B (B indicates 50 < [fold] ≤ 500)
- IC50 [4]: > 1000 nM
- IC50 [5]: > 1000 nM
- IC50 [6]: < 1000 nM

SMILES: CC(C)c1cnn2c(NCc3ccccc3-c3nccc4cc(NC(=O)/C=C/CN(C)C)ccc34)nc(N3CCC4(CC3)OCCO4)nc12 [Compound 110]
- IC50 [1]: > 1000 nM
- IC50 [2]: < 1000 nM
- IC50 [3]: < 100 nM
- CDK1/CDK7: Selectivity of CDK7 inhibition over CDK1 inhibition [3]: B (B indicates 50 < [fold] ≤ 500)
- CDK2/CDK7: Selectivity of CDK7 inhibition over CDK2 inhibition [3]: B (B indicates 50 < [fold] ≤ 500)
- CDK5/CDK7: Selectivity of CDK7 inhibition over CDK5 inhibition [3]: B (B indicates 50 < [fold] ≤ 500)
- IC50 [4]: > 1000 nM
- IC50 [5]: > 1000 nM
- IC50 [6]: < 1000 nM

SMILES: C=C(F)C(=O)Nc1ccc2c(-c3ccccc3CNc3cc(NC[C@H]4CCNC[C@@H]4O)nc4c(C(C)C)cnn34)nccc2c1 [Compound 82]
- IC50 [1]: > 1000 nM
- IC50 [2]: < 1000 nM
- IC50 [3]: < 100 nM
- CDK1/CDK7: Selectivity of CDK7 inhibition over CDK1 inhibition [3]: A (A indicates [fold] > 500)
- CDK2/CDK7: Selectivity of CDK7 inhibition over CDK2 inhibition [3]: A (A indicates [fold] > 500)
- CDK5/CDK7: Selectivity of CDK7 inhibition over CDK5 inhibition [3]: A (A indicates [fold] > 500)
- IC50 [4]: > 1000 nM
- IC50 [5]: > 1000 nM
- IC50 [6]: < 1000 nM

SMILES: C=C(F)C(=O)Nc1ccc2c(-c3ccccc3CNc3nc(N4CCc5ncccc5C4)nc4c(C(C)C)cnn34)nccc2c1 [Compound 170]
- IC50 [1]: > 1000 nM
- IC50 [2]: 1000 to 10000 nM
- IC50 [3]: 100 to 1000 nM
- CDK1/CDK7: Selectivity of CDK7 inhibition over CDK1 inhibition [3]: B (B indicates 50 < [fold] ≤ 500)
- CDK2/CDK7: Selectivity of CDK7 inhibition over CDK2 inhibition [3]: B (B indicates 50 < [fold] ≤ 500)
- CDK5/CDK7: Selectivity of CDK7 inhibition over CDK5 inhibition [3]: B (B indicates 50 < [fold] ≤ 500)
- IC50 [4]: > 1000 nM
- IC50 [5]: > 1000 nM
- IC50 [6]: < 1000 nM

SMILES: CC(C)c1cnn2c(NCc3ccccc3-c3nccc4cc(NC(=O)/C=C/CN(C)C)ccc34)nc(N[C@@H]3CCCNC3)nc12 [Compound 150]
- IC50 [1]: > 1000 nM
- IC50 [2]: < 1000 nM
- IC50 [3]: < 100 nM
- CDK1/CDK7: Selectivity of CDK7 inhibition over CDK1 inhibition [3]: A (A indicates [fold] > 500)
- CDK2/CDK7: Selectivity of CDK7 inhibition over CDK2 inhibition [3]: A (A indicates [fold] > 500)
- CDK5/CDK7: Selectivity of CDK7 inhibition over CDK5 inhibition [3]: A (A indicates [fold] > 500)
- IC50 [4]: > 1000 nM
- IC50 [5]: > 1000 nM
- IC50 [6]: < 1000 nM

SMILES: C=C(F)C(=O)Nc1ccc2c(-c3ccccc3CNc3nc(OC4CCC(C)(C)NC4)nc4c(C(C)C)cnn34)nccc2c1 (stereo not drawn) [Compound 177]
- IC50 [1]: > 1000 nM
- IC50 [2]: < 1000 nM
- IC50 [3]: < 100 nM
- CDK1/CDK7: Selectivity of CDK7 inhibition over CDK1 inhibition [3]: A (A indicates [fold] > 500)
- CDK2/CDK7: Selectivity of CDK7 inhibition over CDK2 inhibition [3]: A (A indicates [fold] > 500)
- CDK5/CDK7: Selectivity of CDK7 inhibition over CDK5 inhibition [3]: A (A indicates [fold] > 500)
- IC50 [4]: > 1000 nM
- IC50 [5]: > 1000 nM
- IC50 [6]: < 1000 nM

SMILES: C=C(F)C(=O)Nc1ccc2c(-c3ccccc3CNc3nc(NC[C@H]4CNC[C@@H]4O)nc4c(C(C)C)cnn34)nccc2c1 [Compound 83]
- IC50 [1]: > 1000 nM
- IC50 [2]: < 1000 nM
- IC50 [3]: < 100 nM
- CDK1/CDK7: Selectivity of CDK7 inhibition over CDK1 inhibition [3]: A (A indicates [fold] > 500)
- CDK2/CDK7: Selectivity of CDK7 inhibition over CDK2 inhibition [3]: A (A indicates [fold] > 500)
- CDK5/CDK7: Selectivity of CDK7 inhibition over CDK5 inhibition [3]: A (A indicates [fold] > 500)
- IC50 [4]: > 1000 nM
- IC50 [5]: > 1000 nM
- IC50 [6]: < 1000 nM

SMILES: C=C(F)C(=O)Nc1ccc2c(-c3ccccc3CNc3nc(NC4CCOC4)nc4c(C(C)C)cnn34)nccc2c1 (stereo not drawn) [Compound 92]
- IC50 [1]: > 1000 nM
- IC50 [2]: < 1000 nM
- IC50 [3]: 100 to 1000 nM
- CDK1/CDK7: Selectivity of CDK7 inhibition over CDK1 inhibition [3]: B (B indicates 50 < [fold] ≤ 500)
- CDK2/CDK7: Selectivity of CDK7 inhibition over CDK2 inhibition [3]: B (B indicates 50 < [fold] ≤ 500)
- CDK5/CDK7: Selectivity of CDK7 inhibition over CDK5 inhibition [3]: B (B indicates 50 < [fold] ≤ 500)
- IC50 [4]: > 1000 nM
- IC50 [5]: > 1000 nM
- IC50 [6]: < 1000 nM

SMILES: CC(C)c1cnn2c(NCc3ccccc3-c3nccc4cc(NC(=O)/C=C/CN(C)C)ccc34)nc(N3CCC4(CCOC4)CC3)nc12 [Compound 117]
- IC50 [1]: > 1000 nM
- IC50 [2]: < 1000 nM
- IC50 [3]: 100 to 1000 nM
- CDK1/CDK7: Selectivity of CDK7 inhibition over CDK1 inhibition [3]: B (B indicates 50 < [fold] ≤ 500)
- CDK2/CDK7: Selectivity of CDK7 inhibition over CDK2 inhibition [3]: B (B indicates 50 < [fold] ≤ 500)
- CDK5/CDK7: Selectivity of CDK7 inhibition over CDK5 inhibition [3]: B (B indicates 50 < [fold] ≤ 500)
- IC50 [4]: > 1000 nM
- IC50 [5]: > 1000 nM
- IC50 [6]: < 1000 nM

SMILES: COC1CC2CCC(C1)N2c1nc(NCc2ccccc2-c2nccc3cc(NC(=O)/C=C/CN(C)C)ccc23)n2ncc(C(C)C)c2n1 (stereo not drawn) [Compound 103]
- IC50 [1]: > 1000 nM
- IC50 [2]: < 1000 nM
- IC50 [3]: < 100 nM
- CDK1/CDK7: Selectivity of CDK7 inhibition over CDK1 inhibition [3]: B (B indicates 50 < [fold] ≤ 500)
- CDK2/CDK7: Selectivity of CDK7 inhibition over CDK2 inhibition [3]: B (B indicates 50 < [fold] ≤ 500)
- CDK5/CDK7: Selectivity of CDK7 inhibition over CDK5 inhibition [3]: B (B indicates 50 < [fold] ≤ 500)
- IC50 [4]: > 1000 nM
- IC50 [5]: > 1000 nM
- IC50 [6]: < 1000 nM
